# In patent US5654310A, “Triazolopyrimidones their preparation and use” (BASF Aktiengesellschaft, priority 1992, dated 1997):
# pKi: −log10 of the molar value.
# Legend:
# [1] = target: T1, NMDA (N-methyl-D-aspartate) receptor (Rattus norvegicus, UniProt P35439); assay: Binding of ^3 H-5,7-dichlorokynurenic acid (displacement on rat cerebral membranes); settings: rat cerebra membranes, pH 7.4, 30 minutes on ice
# T1 construct: freshly removed rat cerebra were homogenized; from tissue; host or cells: rat cerebrum, washed membranes
# [2] = target: AMPA receptor; assay: Binding of ^3 H-AMPA (displacement on rat cerebral membranes); settings: rat cerebra membranes, pH 7.1, 60 minutes on ice
# Description: For this, the membrane material was treated in the presence of the compounds according to the invention with the radio-labeled substances ^3 H-2-amino-3-hydroxy-5-methyl-4-isoxazolepropionic acid (^3 H-AMPA) and ^3 H-5,7-dichlorocyanuric [sic] acid, which bind to specific receptors (AMPA and NMDA (N-methyl-D-aspartate) receptors respectively). Subsequently the radioactivity in the treated membranes was measured by scintillation counting. It was possible from the bound radioactivity to determine the amounts of bound 3H AMPa and ^3 H-5,7-dichlorokyanurenicacid, or the amounts of each of these radiolabeled substances displaced.
# 1. Binding of ^3 H-2-amino-3-hydroxy-5-methyl-4-isoxazolepropionic acid (^3 H-AMPA).
# To prepare the membrane material, freshly removed rat cerebra were homogenized together with about 15 times the volume of a buffer solution A composed of 30 mM α,α,α-tris(hydroxymethyl)methylamine hydrochloride (TRIS-HCl) and 0.5 mM ethylenediaminetetraacetic acid (EDTA), pH 7.4, using an Ultra-TURRAX. The suspension was centrifuged at 48,000 g for 20 min. After removal of the supernatant liquid, the protein-containing membrane material present in the pellet was washed three times by suspension in buffer solution A and subsequent centrifugation at 48,000 g for 20 minutes each time. The membrane material was then suspended in 15 times the volume of buffer solution A and incubated at 37° C. for 30 minutes. Subsequently the protein material was washed twice by centrifugation and suspension and was stored at -70° C. until used.
# For the binding test, the protein material was thawed at 37° C. and washed twice by centrifugation at 48,000 g (20 min) and subsequent suspension in a buffer solution B composed of 50 mM TRIS-HCl, 0.1M potassium thiocyanate and 2.5 mM calcium chloride, pH 7.1. […] The filtrate [sic] was subsequently washed with 5 ml of cold buffer solution B in order to separate bound and free ^3 H-AMPA from one another. After measurement of the radioactivity of the bound ^3 H-AMPA in the membrane material by scintillation counting, the KI was determined by regression analysis of the displacement plots.
Structure (SMILES),pKi [1],pKi [2]
"O=C(O)c1nc2c3c(nc(=O)n2[nH]1)CCCC3 [Example 2, 7,8,9,10-Tetrahydro-1,2,4-triazolo[1,5-c]quinazolin-5-one-2-carboxylic acid]",6.70,–
"O=C(NCc1ccccc1)c1nc2c3c([nH]c(=O)n2n1)CCCC3 [Example 3, 7,8,9,10-Tetrahydro-1,2,4-triazolo[1,5-c]quinazolin-5-one-2-carboxylic acid N-benzylolylamide]",5.92,5.82
O=C(O)c1nc2c3c([nH]c(=O)n2n1)CCC3 [Example 6],5.80,–
CCOC(=O)c1nc2c3c([nH]c(=O)n2n1)CCCCC3 [Example 7],6.40,–
O=C(O)c1nc2c3c([nH]c(=O)n2n1)CCCCC3 [Example 8],6.70,–
CCOC(=O)c1nc2c3c([nH]c(=O)n2n1)-c1ccccc1CC3 [Example 9],6.19,–
O=C(O)c1nc2c3c([nH]c(=O)n2n1)-c1ccccc1CC3 [Example 10],6.52,5.77
O=C(O)CCc1nc2c3c([nH]c(=O)n2n1)-c1ccccc1CC3 [Example 11],7.00,6.00
O=C(NCc1ccc(Cl)c(Cl)c1)c1nc2c3c([nH]c(=O)n2n1)CCCC3 [Example 12],5.80,–
O=C(NCc1ccc([N+](=O)[O-])cc1)c1nc2c3c([nH]c(=O)n2n1)CCCC3 [Example 15],5.70,–
O=C(O)c1nc2c3c([nH]c(=O)n2n1)CCSC3 [Example 18],6.10,–
CCOC(=O)c1nc2c3c([nH]c(=O)n2n1)CC1CCCCC1C3 (stereo not shown) [Example 21],5.59,5.77
